Assay results as given in patent US5849753A, “Pyridyl imidazole derivatives and processes for the preparation thereof” (Korea Research Institute of Chemical Technology, priority 1994, dated 1998).

Experiments:
renal hypertensive rat [1] = test: Blood pressure lowering effect in renal hypertension (renal hypertensive rats, intravenous or oral); type: in vivo, male Sprague-Dawley rats; settings: 3 mg, read-out: Maxium Blood Pressure Lowering Effect(%)
Procedure, shortened: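 Renal hypertension induced in male Sprague-Dawley rats by complete left renal artery ligation at 4 weeks of age; rats with systolic pressure above 180 mmHg at 6–8 days were used. Compounds given i.v. (in 0.05N KOH) or p.o. (Tween 80 suspension); blood pressure and heart rate recorded via carotid catheter up to 24 h, compared with losartan.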

[2] = system: furosemide-administered dogs; test: Duration of action in furosemide-administered dogs; type: in vivo, dog; settings: for blood pressure lowering effect with time: 1 mg, per os
Procedure: (§1) The test dogs were anesthetized with 30 mg/kg of pentobarbital sodium by intravenous injection and the left femoral artery and femoral vein were separated carefully. Silicone catheter, specially prepared and filled with saline treated with heparin(1,000 IU/ml), was cannulated into the blood vessels. After the surgery, the dogs were constrained to measure their blood pressure continuously with Gould 2000 physiograph adapted to a Grass P23 XL pressure transducer; and their heart rates were monitored with ECG/Biotacho amplifier. The dogs were tested at least 2 days after the surgery.
10 mg/kg of furosemide was injected intramuscularly 18 hours(in case of intravenous injection, 2 hours) before the beginning of the test (administration of the test compound) to improve the activity of renin in blood plasma. After the injection of furosemide, neither food nor water was provided. […] The blood pressure and heart rate were measured up to 8 hours after the administration of each test compound.
The compound of Example 8 and the Merck compound were administered orally to the furosemide-administrated dogs as in test 3(i), and blood pressure lowering effect was measured with time.

renal hypertensive rat [3] = test: Blood pressure lowering effect on oral administration to rats at several doses; type: in vivo, male Sprague-Dawley rats
Description: To induce renal hypertension, left renal artery of 4 week-old male Sprague-Dawley rats(from The Korea Research Institute of Chemical Technology) was ligated. The rats were anesthetized with ether and the surgical region on the left abdomen of the rat was shaved, disinfected, and then incised about 1 cm vertically. The renal artery near abdominal aorta was isolated carefully from surrounding tissues and veins, and then ligated completely with a suture(4/0 sterile surgical silk). The muscular strata and skin of the surgical area were sutured with a suture(4/0 sterile surgical silk). The surgical region was disinfected to prevent infection and thereafter, 200 to 250 mg/Kg/day of cephazolin sodium was injected intramuscularly for 2 days. 6 to 8 days after the ligation, rats showing systolic pressure of more than 180 mmHg were selected for renal hypertension test. The blood pressure was determined by a tail-cuff method from the tail under unanesthetized condition(Gerold, M. et al., Arzneimittrel-Forsch, 18, 1285(1968)).
Each of the compounds to be tested was administered intravenously or orally into the renal hypertensive rat. The blood pressure of the rats was determined by direct method(Chiu, A. T. et al., J. Pharmacol. Exp. Ther. 250, 867(1989)) using a catheter. The rats were anesthetized with ketamine hydrochloride(125 mg/kg, i.p.) and a catheter was filled with saline and inserted into a carotid artery and carotid vein. The surgical area was sutured with a metal clip. The rats were relaxed at least 3 hours and the catheter in the carotid artery was adapted to an isotec pressure transducer to determine their blood pressure and heart rate with a physiograph(Linearcorder WR3310). After the blood pressure was stabilized, the test compound was administered intravenously or orally. For intravenous administration, the administered volume and washing volume were 1.0 ml/Kg and 0.2 ml, respectively. The blood pressure and heart rate were measured in regular intervals up to 24 hours after the administration of the test compound and compared with those measured after the administration of the control compound Losartan.
The test compound was dissolved in 0.05N KOH for intravenous administration and suspended in Tween 80 for oral administration.
(iii) Blood pressure lowering effect The present compounds, Losartan(Dup 753) and the Merck compound were administrated orally to rats in 10, 3, 1, 0.3 and 0.1 mg/kg under the same condition as in (ii) and the blood pressure lowering effect was determined.

unanesthetized dogs = test: Blood pressure lowering effect in unanesthetized dogs (furosemide treated); type: in vivo, dog; parameters: Maximum blood pressure lowering effect in a dog: unit not given here; settings: oral; for Blood pressure variation with time: dogs, 1.0 mg
Procedure: A number of dogs were fed freely in a feeding room and those weighing 7 to 12 kg in good health were selected regardless of their gender.
as §1
10 mg/kg of furosemide was injected intramuscularly 18 hours(in case of intravenous injection, 2 hours) before the beginning of the test (administration of the test compound) to improve the activity of renin in blood plasma. After the injection of furosemide, neither food nor water was provided. The test compound was suspended in Tween 80 and administered in an amount of 20 mg/kg orally. The blood pressure and heart rate were measured up to 8 hours after the administration of each test compound.
The maximum blood pressure lowering effect of the present compounds and the control compounds were determined in different amounts of administration using the same method as […]

SMILES: CCCCc1nc2cc(-c3ccccn3)c(C(OC)OC)nc2n1Cc1ccc(-c2ccccc2-c2nnn[nH]2)cc1 [Example 8, 2-butyl-5-dimethoxymethyl-6-(pyridin-2-yl)-3-[2'-(1H-tetrazol-5-yl)-biphenyl-4-ylmethyl]-3H-imidazo[4,5-b]pyridine]
- change in vivo at 3 mg (renal hypertensive rat [1]): -50%
- blood pressure lowering effect with time ([2]; 0 min): 0%
- blood pressure lowering effect with time ([2]; 10 min): 0%
- blood pressure lowering effect with time ([2]; 20 min): -8%
- blood pressure lowering effect with time ([2]; 30 min): -16.2%
- blood pressure lowering effect with time ([2]; 60 min): -23.8%
- blood pressure lowering effect with time ([2]; 90 min): -26.0%
- blood pressure lowering effect with time ([2]; 120 min): -30.0%
- blood pressure lowering effect with time ([2]; 150 min): -31.7%
- blood pressure lowering effect with time ([2]; 180 min): -31.7%
- blood pressure lowering effect with time ([2]; 210 min): -31.2%
- blood pressure lowering effect with time ([2]; 240 min): -32.7%
- blood pressure lowering effect with time ([2]; 270 min): -33.9%
- blood pressure lowering effect with time ([2]; 300 min): -34.9%
- blood pressure lowering effect with time ([2]; 330 min): -37.0%
- blood pressure lowering effect with time ([2]; 360 min): -35.5%
- blood pressure lowering effect with time ([2]; 390 min): -36.4%
- blood pressure lowering effect with time ([2]; 420 min): -34.9%
- blood pressure lowering effect with time ([2]; 450 min): -33.0%
- blood pressure lowering effect with time ([2]; 480 min): -33.0%
- maximum blood pressure lowering effect lasted up to (after the administration) ([2]; furosemide-administered dogs, oral, as shown in Table 6): up to 8 hours
- blood pressure lowering effect (renal hypertensive rat [3]; 1 mg/kg): 32%
- blood pressure lowering effect (renal hypertensive rat [3]; 3 mg/kg): 35-37%
- Maximum blood pressure lowering effect in a dog (unanesthetized dogs; 0.1 mg/kg): 17
- Maximum blood pressure lowering effect in a dog (unanesthetized dogs; 0.3 mg/kg): 32
- Maximum blood pressure lowering effect in a dog (unanesthetized dogs; 1 mg/kg): 34
- Blood pressure variation with time (unanesthetized dogs; 0.5 hr): -32.7%
- Blood pressure variation with time (unanesthetized dogs; 1 hr): -29.9%
- Blood pressure variation with time (unanesthetized dogs; 2 hr): -33.0%
- Blood pressure variation with time (unanesthetized dogs; 4 hr): -26.8%
- Blood pressure variation with time (unanesthetized dogs; 6 hr): -25.0%
- Blood pressure variation with time (unanesthetized dogs; 8 hr): -19.7%
